From US11596639B2, “Substituted indole Mcl-1 inhibitors” (Vanderbilt University, priority 2016, dated 2023)

What was measured:
[1] = system: H929 human cancer cell lines; experiment: Cellular viability / proliferation (Cell TiterGlo, 72 h); format: cell-based; conditions: Homo sapiens, NCI-H929, 72 h, read-out: GI50 on cellular proliferation of H929 human cancer cell lines, H929 cells, 72 h, Cell TiterGlo, 10% FBS
Method in brief: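 1,000 cells/well, 10% FBS medium; compound added at 24 h, 2-fold dilutions from 50 μM top, DMSO <1% final. 72 h exposure, CellTiterGlo 30 min RT dark, luminescence read. IC50 by 4-parameter fit.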

Mcl-1 = Mcl-1 (Homo sapiens (Human), UniProt Q07820); experiment: Fluorescence polarization anisotropy (FPA) competition assay, FITC-Bak or FITC-Bim BH3 peptide; format: binding; conditions: read-out: Ki for Inhibition of Mcl-1 by FPA assay
Chain of Mcl-1 (Q07820 172-327): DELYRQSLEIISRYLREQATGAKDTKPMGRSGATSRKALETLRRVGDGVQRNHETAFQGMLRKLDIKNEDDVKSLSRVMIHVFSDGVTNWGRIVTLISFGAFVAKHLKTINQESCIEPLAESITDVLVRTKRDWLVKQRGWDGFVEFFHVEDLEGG

SMILES: Cc1cc(OCCCc2c3n(c4c(-c5c(C)nn(C)c5C)c(Cl)ccc24)[C@H](C)CN(c2cccc4cc(C(=O)O)n(Cc5cscn5)c24)C3=O)cc(C)c1Cl [Example 304, 7-[(4R)-7-chloro-10-[3-(4-chloro-3,5-dimethyl-phenoxy)propyl]-4-methyl-1-oxo-6-(1,3,5-trimethylpyrazol-4-yl)-3,4-dihydropyrazino[1,2-a]indol-2-yl]-1-(thiazol-4-ylmethyl)indole-2-carboxylic acid]
- GI50 [1]: 370 nM
- Ki (Mcl-1): < 1 nM

SMILES: Cc1cc(OCCCc2c3n(c4c(-c5c(C)nn(C)c5C)c(Cl)ccc24)[C@H](C)CN(c2cccc4cc(C(=O)O)n(Cc5ncccn5)c24)C3=O)cc(C)c1Cl [Example 329, (R)-7-(7-Chloro-10-(3-(4-chloro-3,5-dimethylphenoxy)propyl)-4-methyl-1-oxo-6-(1,3,5-trimethyl-1H-pyrazol-4-yl)-3,4-dihydropyrazino[1,2-a]indol-2(1H)-yl)-1-(pyrimidin-2-ylmethyl)-1H-indole-2-carboxylic acid]
- GI50 [1]: 1100 nM
- Ki (Mcl-1): < 1 nM

SMILES: Cc1cc(OCCCc2c3n(c4c(-c5c(C)nc(CN6CCNCC6)nc5C)c(Cl)ccc24)[C@H](C)CN(c2cn(C)c4ccc(C(=O)O)cc24)C3=O)cc(C)c1Cl [Example 441, (R)-3-(7-Chloro-10-(3-(4-chloro-3,5-dimethylphenoxy)propyl)-6-(4,6-dimethyl-2-(piperazin-1-ylmethyl)pyrimidin-5-yl)-4-methyl-1-oxo-3,4-dihydropyrazino[1,2-a]indol-2(1H)-yl)-1-methyl-1H-indole-5-carboxylic acid]
- GI50 [1]: 4600 nM
- Ki (Mcl-1): 7 nM

SMILES: Cc1cc(OCCCc2c3n(c4c(-c5c(C)nn(C)c5C)c(Cl)ccc24)[C@H](C)CN(c2cn(C)c4ccc(-c5n[nH]c(=O)o5)cc24)C3=O)cc(C)c1Cl [Example 444, (R)-5-(3-(7-Chloro-10-(3-(4-chloro-3,5-dimethylphenoxy)propyl)-4-methyl-1-oxo-6-(1,3,5-trimethyl-1H-pyrazol-4-yl)-3,4-dihydropyrazino[1,2-a]indol-2(1H)-yl)-1-methyl-1H-indol-5-yl)-1,3,4-oxadiazol-2(3H)-one]
- GI50 [1]: 220 nM
- Ki (Mcl-1): 1.3 nM

SMILES: COc1ccnc(-c2ccc3c(c2)c(N2C[C@@H](C)n4c(c(CCCOc5cc(C)c(Cl)c(C)c5)c5ccc(Cl)c(-c6c(C)nn(C)c6C)c54)C2=O)cn3C)n1 [Example 464, (R)-7-Chloro-10-(3-(4-chloro-3,5-dimethylphenoxy)propyl)-2-(5-(4-methoxypyrimidin-2-yl)-1-methyl-1H-indol-3-yl)-4-methyl-6-(1,3,5-trimethyl-1H-pyrazol-4-yl)-3,4-dihydropyrazino[1,2-a]indol-1(2H)-one]
- GI50 [1]: 480 nM
- Ki (Mcl-1): 3.5 nM

SMILES: COc1cc(C(=O)O)cc(N2CCCn3c(c(CCCOc4cc(C)c(Cl)c(C)c4)c4ccc(Cl)c(-c5c(C)nn(C)c5C)c43)C2=O)c1OCCCO [Example 67, 3-[8-Chloro-11-[3-(4-chloro-3,5-dimethyl-phenoxy)propyl]-1-oxo-7-(1,3,5-trimethylpyrazol-4-yl)-4,5-dihydro-3H-[1,4]diazepino[1,2-a]indol-2-yl]-4-(3-hydroxypropoxy)-5-methoxy-benzoic acid]
- GI50 [1]: 8500 nM
- Ki (Mcl-1): < 1 nM

SMILES: Cc1cc(OCCCc2c3n(c4c(-c5c(C)nn(C)c5C)c(Cl)ccc24)[C@H](C)CN(c2cn(C)c4ccc(C(=O)NCc5ccncc5)cc24)C3=O)cc(C)c1Cl [Example 284, 3-[(4R)-7-chloro-10-[3-(4-chloro-3,5-dimethyl-phenoxy)propyl]-4-methyl-1-oxo-6-(1,3,5-trimethylpyrazol-4-yl)-3,4-dihydropyrazino[1,2-a]indol-2-yl]-1-methyl-N-(4-pyridylmethyl)indole-5-carboxamide]
- GI50 [1]: 1500 nM
- Ki (Mcl-1): 3.6 nM
